Laboratory results reported in PMC11842588, “A first-in-class selective inhibitor of ERK1/2 and ERK5 overcomes drug resistance with a single-molecule strategy” (Signal Transduction and Targeted Therapy, 2025).

Columns and labels:
Test in all cases: Kinase profiling
Type in all cases: biochemical
[1] = biological target: T1, PI3 Kinase (p110b/p85a)(h) (Homo sapiens, UniProt P42338)
T1 construct: purchased Eurofins Cerep SA (KinaseProfiler)
Procedure: (§1) 380 kinases inhibitory activities of SKLB-D18 were conducted by Eurofins Cerep SA. The result was illustrated by kinase tree (http://www.kinhub.org/kinmap/).

[2] = biological target: T2, EphA4(h) (Homo sapiens, UniProt P54764)
T2 construct: purchased Eurofins Cerep SA (KinaseProfiler)
Procedure: as §1

[3] = biological target: T3, PRKG2(h) (Homo sapiens, UniProt Q13237)
T3 construct: purchased Eurofins Cerep SA (KinaseProfiler)
Procedure: as §1

[4] = biological target: T4, CDK18/cyclinY(h) (Homo sapiens, UniProt Q07002)
T4 construct: purchased Eurofins Cerep SA (KinaseProfiler)
Procedure: as §1

[5] = biological target: T5, MYLK2(h) (Homo sapiens, UniProt Q9H1R3)
T5 construct: purchased Eurofins Cerep SA (KinaseProfiler)
Procedure: as §1

[6] = biological target: T6, EphB4(h) (Homo sapiens, UniProt P54760)
T6 construct: purchased Eurofins Cerep SA (KinaseProfiler)
Procedure: as §1

[7] = biological target: T7, MYO3B(h) (Homo sapiens, UniProt Q8WXR4)
T7 construct: purchased Eurofins Cerep SA (KinaseProfiler)
Procedure: as §1

[8] = biological target: T8, EphA2(h) (Homo sapiens, UniProt P29317)
T8 construct: purchased Eurofins Cerep SA (KinaseProfiler)
Procedure: as §1

[9] = biological target: T9, MAPK3(h) (Homo sapiens, UniProt P27361)
T9 construct: purchased Eurofins Cerep SA (KinaseProfiler)
Procedure: as §1

[10] = biological target: T10, LIMK1(h) (Homo sapiens, UniProt P53667)
T10 construct: purchased Eurofins Cerep SA (KinaseProfiler)
Procedure: as §1

[11] = biological target: T11, MATK(h) (Homo sapiens, UniProt P42679)
T11 construct: purchased Eurofins Cerep SA (KinaseProfiler)
Procedure: as §1

[12] = biological target: T12, PKCβII(h) (Homo sapiens, UniProt P05771)
T12 construct: purchased Eurofins Cerep SA (KinaseProfiler)
T12 sequence (P05771 1-673 isoform P05771-2): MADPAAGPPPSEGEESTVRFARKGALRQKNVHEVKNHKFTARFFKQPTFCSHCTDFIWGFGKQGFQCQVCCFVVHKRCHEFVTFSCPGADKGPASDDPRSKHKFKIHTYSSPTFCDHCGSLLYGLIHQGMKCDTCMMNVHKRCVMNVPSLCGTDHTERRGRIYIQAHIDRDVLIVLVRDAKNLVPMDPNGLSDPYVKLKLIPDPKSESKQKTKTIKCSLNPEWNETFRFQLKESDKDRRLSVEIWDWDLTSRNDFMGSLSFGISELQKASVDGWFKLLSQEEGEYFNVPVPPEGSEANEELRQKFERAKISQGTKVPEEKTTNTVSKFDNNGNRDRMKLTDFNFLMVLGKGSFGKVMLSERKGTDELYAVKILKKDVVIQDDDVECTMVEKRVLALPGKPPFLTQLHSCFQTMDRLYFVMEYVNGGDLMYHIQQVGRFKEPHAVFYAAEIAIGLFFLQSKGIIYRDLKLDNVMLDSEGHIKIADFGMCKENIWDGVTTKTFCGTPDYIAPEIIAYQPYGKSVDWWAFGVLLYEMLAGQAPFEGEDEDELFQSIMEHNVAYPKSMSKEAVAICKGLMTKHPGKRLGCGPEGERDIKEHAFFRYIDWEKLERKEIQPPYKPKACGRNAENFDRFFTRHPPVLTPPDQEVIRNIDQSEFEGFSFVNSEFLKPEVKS
Procedure: as §1

[13] = biological target: T13, PAK2(h) (Homo sapiens, UniProt Q13177)
T13 construct: purchased Eurofins Cerep SA (KinaseProfiler)
T13 sequence (Q13177 whole entry): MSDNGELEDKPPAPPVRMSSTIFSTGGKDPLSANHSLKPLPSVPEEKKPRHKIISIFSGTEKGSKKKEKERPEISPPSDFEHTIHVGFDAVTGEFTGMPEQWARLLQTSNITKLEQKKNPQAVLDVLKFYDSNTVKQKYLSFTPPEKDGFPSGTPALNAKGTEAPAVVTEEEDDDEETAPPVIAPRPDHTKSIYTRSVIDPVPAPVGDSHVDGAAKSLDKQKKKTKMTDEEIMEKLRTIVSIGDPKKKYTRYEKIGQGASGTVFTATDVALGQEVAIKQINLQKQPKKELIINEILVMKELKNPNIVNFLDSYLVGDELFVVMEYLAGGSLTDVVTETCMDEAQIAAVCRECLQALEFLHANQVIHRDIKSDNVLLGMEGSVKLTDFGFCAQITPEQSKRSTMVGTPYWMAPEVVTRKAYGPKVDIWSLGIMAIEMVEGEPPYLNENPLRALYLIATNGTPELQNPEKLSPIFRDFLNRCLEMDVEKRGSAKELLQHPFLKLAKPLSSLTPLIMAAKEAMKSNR
Procedure: as §1

[14] = biological target: T14, PhKγ1(h) (Homo sapiens, UniProt Q16816)
T14 construct: purchased Eurofins Cerep SA (KinaseProfiler)
Procedure: as §1

[15] = biological target: T15, MEK2(h) (Homo sapiens, UniProt P36507)
T15 construct: purchased Eurofins Cerep SA (KinaseProfiler)
T15 sequence (P36507 whole entry): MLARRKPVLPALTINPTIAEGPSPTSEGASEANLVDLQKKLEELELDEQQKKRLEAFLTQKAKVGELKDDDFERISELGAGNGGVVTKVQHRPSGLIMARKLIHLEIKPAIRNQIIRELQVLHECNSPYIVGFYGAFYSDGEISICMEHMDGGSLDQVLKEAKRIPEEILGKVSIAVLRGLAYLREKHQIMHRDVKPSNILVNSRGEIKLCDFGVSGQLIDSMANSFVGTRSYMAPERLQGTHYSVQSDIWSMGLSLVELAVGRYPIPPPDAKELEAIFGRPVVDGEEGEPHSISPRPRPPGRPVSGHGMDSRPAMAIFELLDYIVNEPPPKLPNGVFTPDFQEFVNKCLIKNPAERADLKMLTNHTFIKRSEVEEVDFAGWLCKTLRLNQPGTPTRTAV
Procedure: as §1

[16] = biological target: T16, PDHK4(h) (Homo sapiens, UniProt Q16654)
T16 construct: purchased Eurofins Cerep SA (KinaseProfiler)
Procedure: as §1

[17] = biological target: T17, CK1α(h) (Homo sapiens, UniProt P48729)
T17 construct: purchased Eurofins Cerep SA (KinaseProfiler)
T17 sequence (P48729 whole entry): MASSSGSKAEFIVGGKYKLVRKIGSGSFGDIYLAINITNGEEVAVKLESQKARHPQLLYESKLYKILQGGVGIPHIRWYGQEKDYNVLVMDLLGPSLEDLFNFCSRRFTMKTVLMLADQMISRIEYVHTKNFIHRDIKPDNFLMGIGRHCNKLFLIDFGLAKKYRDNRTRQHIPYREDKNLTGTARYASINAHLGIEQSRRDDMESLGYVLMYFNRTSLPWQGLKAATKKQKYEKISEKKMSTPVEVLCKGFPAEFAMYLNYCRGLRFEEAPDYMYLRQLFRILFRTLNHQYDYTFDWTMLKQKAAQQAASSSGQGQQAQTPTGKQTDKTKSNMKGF
Procedure: as §1

[18] = biological target: T18, GRK6(h) (Homo sapiens, UniProt P43250)
T18 construct: purchased Eurofins Cerep SA (KinaseProfiler)
Procedure: as §1

[19] = biological target: T19, MEKK2(h) (Homo sapiens, UniProt Q9Y2U5)
T19 construct: purchased Eurofins Cerep SA (KinaseProfiler)
Procedure: as §1

[20] = biological target: T20, CaMKIIγ(h) (Homo sapiens, UniProt Q13555)
T20 construct: purchased Eurofins Cerep SA (KinaseProfiler)
Procedure: as §1

[21] = biological target: T21, CDKL2(h) (Homo sapiens, UniProt Q92772)
T21 construct: purchased Eurofins Cerep SA (KinaseProfiler)
Procedure: as §1

[22] = biological target: T22, PKAcβ(h) (Homo sapiens, UniProt P22694)
T22 construct: purchased Eurofins Cerep SA (KinaseProfiler)
Procedure: as §1

[23] = biological target: T23, PAK1(h) (Homo sapiens, UniProt Q13153)
T23 construct: purchased Eurofins Cerep SA (KinaseProfiler)
Procedure: as §1

[24] = biological target: T24, Itk(h) (Homo sapiens, UniProt Q08881)
T24 construct: purchased Eurofins Cerep SA (KinaseProfiler)
T24 sequence (Q08881 whole entry): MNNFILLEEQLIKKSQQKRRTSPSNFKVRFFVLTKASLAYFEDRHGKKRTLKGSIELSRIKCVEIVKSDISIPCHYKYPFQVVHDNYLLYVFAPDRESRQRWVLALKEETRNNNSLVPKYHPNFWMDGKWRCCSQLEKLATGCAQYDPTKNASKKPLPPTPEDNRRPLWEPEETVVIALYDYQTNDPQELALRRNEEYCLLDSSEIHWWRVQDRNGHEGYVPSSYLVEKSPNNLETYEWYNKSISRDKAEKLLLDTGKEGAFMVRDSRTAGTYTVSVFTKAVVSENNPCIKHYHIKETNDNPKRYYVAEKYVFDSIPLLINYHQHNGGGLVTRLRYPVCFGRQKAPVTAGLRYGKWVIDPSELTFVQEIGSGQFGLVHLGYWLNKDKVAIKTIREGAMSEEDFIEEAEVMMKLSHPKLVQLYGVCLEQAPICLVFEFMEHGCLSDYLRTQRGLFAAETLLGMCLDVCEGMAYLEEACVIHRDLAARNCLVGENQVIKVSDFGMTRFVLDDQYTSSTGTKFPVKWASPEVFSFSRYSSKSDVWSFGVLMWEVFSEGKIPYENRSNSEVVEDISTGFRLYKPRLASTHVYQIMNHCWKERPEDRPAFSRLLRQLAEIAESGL
Procedure: as §1

[25] = biological target: T25, Txk(h) (Homo sapiens, UniProt P42681)
T25 construct: purchased Eurofins Cerep SA (KinaseProfiler)
Procedure: as §1

[26] = biological target: T26, LATS2(h) (Homo sapiens, UniProt Q9NRM7)
T26 construct: purchased Eurofins Cerep SA (KinaseProfiler)
Procedure: as §1

[27] = biological target: T27, TNIK(h) (Homo sapiens, UniProt Q9UKE5)
T27 construct: purchased Eurofins Cerep SA (KinaseProfiler)
Procedure: as §1

[28] = biological target: T28, FGFR3(h) (Homo sapiens, UniProt P22607)
T28 construct: purchased Eurofins Cerep SA (KinaseProfiler)
Procedure: as §1

[29] = biological target: T29, PRAK(h) (Homo sapiens, UniProt Q8IW41)
T29 construct: purchased Eurofins Cerep SA (KinaseProfiler)
T29 sequence (Q8IW41 whole entry): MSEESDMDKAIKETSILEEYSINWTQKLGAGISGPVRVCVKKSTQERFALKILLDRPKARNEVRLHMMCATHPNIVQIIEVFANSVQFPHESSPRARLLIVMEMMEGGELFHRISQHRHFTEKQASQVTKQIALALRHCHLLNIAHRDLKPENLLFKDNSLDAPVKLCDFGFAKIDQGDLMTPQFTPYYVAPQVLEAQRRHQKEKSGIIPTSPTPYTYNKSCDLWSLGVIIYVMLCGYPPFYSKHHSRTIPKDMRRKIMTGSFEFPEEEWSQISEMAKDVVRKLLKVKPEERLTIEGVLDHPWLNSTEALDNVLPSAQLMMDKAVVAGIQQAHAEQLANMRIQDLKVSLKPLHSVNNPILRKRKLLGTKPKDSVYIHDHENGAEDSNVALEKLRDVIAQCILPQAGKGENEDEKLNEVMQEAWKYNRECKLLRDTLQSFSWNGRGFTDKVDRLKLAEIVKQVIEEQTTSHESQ
Procedure: as §1

[30] = biological target: T30, PKCι(h) (Homo sapiens, UniProt P41743)
T30 construct: purchased Eurofins Cerep SA (KinaseProfiler)
T30 sequence (P41743 whole entry): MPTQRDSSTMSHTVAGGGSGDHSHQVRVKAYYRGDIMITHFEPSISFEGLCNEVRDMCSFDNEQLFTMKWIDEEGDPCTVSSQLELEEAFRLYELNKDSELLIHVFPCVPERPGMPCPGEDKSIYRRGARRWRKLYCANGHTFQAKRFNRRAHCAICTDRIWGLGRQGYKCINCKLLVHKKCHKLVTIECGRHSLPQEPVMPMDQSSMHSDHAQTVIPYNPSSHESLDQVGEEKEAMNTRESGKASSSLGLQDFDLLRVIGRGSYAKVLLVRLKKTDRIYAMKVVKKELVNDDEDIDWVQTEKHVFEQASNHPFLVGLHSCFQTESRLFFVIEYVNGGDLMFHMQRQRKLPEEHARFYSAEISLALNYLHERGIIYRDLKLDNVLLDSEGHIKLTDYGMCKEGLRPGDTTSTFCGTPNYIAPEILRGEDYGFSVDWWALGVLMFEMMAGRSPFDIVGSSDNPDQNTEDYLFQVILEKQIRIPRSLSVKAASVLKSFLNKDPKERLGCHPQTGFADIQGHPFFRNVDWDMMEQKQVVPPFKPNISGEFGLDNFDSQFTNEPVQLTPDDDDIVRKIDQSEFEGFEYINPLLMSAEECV
Procedure: as §1

[31] = biological target: T31, Mnk2(h) (Homo sapiens, UniProt Q9HBH9)
T31 construct: purchased Eurofins Cerep SA (KinaseProfiler)
Procedure: as §1

[32] = biological target: T32, CDK5/p35(h) (Homo sapiens, UniProt Q00535)
T32 construct: purchased Eurofins Cerep SA (KinaseProfiler)
Procedure: as §1

[33] = biological target: T33, RIPK1(h) (Homo sapiens, UniProt Q13546)
T33 construct: purchased Eurofins Cerep SA (KinaseProfiler)
Procedure: as §1

[34] = biological target: T34, ULK2(h) (Homo sapiens, UniProt Q8IYT8)
T34 construct: purchased Eurofins Cerep SA (KinaseProfiler)
T34 sequence (Q8IYT8 whole entry): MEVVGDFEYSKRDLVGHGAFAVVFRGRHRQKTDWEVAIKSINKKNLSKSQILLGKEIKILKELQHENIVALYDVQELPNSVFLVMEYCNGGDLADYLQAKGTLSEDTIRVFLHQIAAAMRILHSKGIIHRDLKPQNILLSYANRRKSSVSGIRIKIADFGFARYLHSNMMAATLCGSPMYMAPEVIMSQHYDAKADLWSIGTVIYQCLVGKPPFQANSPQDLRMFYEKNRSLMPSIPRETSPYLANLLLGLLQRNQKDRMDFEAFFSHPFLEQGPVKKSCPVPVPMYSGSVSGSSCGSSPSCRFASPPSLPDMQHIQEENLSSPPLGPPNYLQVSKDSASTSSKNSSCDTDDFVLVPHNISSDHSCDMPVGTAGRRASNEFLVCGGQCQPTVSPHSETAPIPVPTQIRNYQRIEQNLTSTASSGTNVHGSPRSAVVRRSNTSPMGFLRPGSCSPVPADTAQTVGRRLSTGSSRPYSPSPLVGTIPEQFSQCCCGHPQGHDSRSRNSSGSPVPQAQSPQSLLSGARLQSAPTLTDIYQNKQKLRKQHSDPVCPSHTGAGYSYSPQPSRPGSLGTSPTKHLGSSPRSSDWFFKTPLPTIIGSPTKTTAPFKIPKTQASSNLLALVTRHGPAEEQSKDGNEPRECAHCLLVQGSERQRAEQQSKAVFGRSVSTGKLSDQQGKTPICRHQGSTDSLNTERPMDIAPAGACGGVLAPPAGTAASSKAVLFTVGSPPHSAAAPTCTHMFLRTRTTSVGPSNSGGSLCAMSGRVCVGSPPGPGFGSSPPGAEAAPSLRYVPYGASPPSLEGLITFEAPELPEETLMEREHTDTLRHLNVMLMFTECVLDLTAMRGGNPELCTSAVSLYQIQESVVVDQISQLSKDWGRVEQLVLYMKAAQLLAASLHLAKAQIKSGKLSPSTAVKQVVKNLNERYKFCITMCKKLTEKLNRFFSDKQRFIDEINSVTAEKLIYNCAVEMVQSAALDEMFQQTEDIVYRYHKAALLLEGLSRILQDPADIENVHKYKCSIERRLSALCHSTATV
Procedure: as §1

[35] = biological target: T35, BIKe(h) (Homo sapiens, UniProt Q9NSY1)
T35 construct: purchased Eurofins Cerep SA (KinaseProfiler)
Procedure: as §1

[36] = biological target: T36, PIP5K1g(h) (Homo sapiens, UniProt O60331)
T36 construct: purchased Eurofins Cerep SA (KinaseProfiler)
Procedure: as §1

[37] = biological target: T37, PKCβI(h) (Homo sapiens, UniProt P05771)
T37 construct: purchased Eurofins Cerep SA (KinaseProfiler)
Procedure: as §1

[38] = biological target: T38, PKCζ(h) (Homo sapiens, UniProt Q05513)
T38 construct: purchased Eurofins Cerep SA (KinaseProfiler)
Procedure: as §1

[39] = biological target: T39, NEK3(h) (Homo sapiens, UniProt P51956)
T39 construct: purchased Eurofins Cerep SA (KinaseProfiler)
Procedure: as §1

[40] = biological target: T40, ZIPK(h) (Homo sapiens, UniProt O43293)
T40 construct: purchased Eurofins Cerep SA (KinaseProfiler)
Procedure: as §1

[41] = biological target: T41, TLK2(h) (Homo sapiens, UniProt Q86UE8)
T41 construct: purchased Eurofins Cerep SA (KinaseProfiler)
Procedure: as §1

`CN(C)Cc1cccc(Nc2ncc(Cl)c(-c3csc(C(=O)NN4CCOCC4)c3)n2)c1` [SKLB-D18, 4-(5-chloro-2-((3-((dimethylamino)methyl)phenyl)amino)pyrimidin-4-yl)-N-morpholinothiophene-2-carboxamide] gave an inhibition at 1 µM [1] of 8%, an inhibition at 1 µM [2] of 6% and an inhibition at 1 µM [3] of 18%. The inhibition at 1 µM [4] was 48%, the inhibition at 1 µM [5] was 68% and the inhibition at 1 µM [6] was 9%. The inhibition at 1 µM [7] was 4%, the inhibition at 1 µM [8] was 17% and the inhibition at 1 µM [9] was 96%. For the same compound, the inhibition at 1 µM [10] was 20%, the inhibition at 1 µM [11] was 2% and the inhibition at 1 µM [12] was 28%. The inhibition at 1 µM [13] was 12%, the inhibition at 1 µM [14] was 63% and the inhibition at 1 µM [15] was 59%. For the same compound, the inhibition at 1 µM [16] was 5%, the inhibition at 1 µM [17] was 8% and the inhibition at 1 µM [18] was 2%. For the same compound, the inhibition at 1 µM [19] was 53%, the inhibition at 1 µM [20] was 50% and the inhibition at 1 µM [21] was 39%. For the same compound, the inhibition at 1 µM [22] was 12%, the inhibition at 1 µM [23] was 45% and the inhibition at 1 µM [24] was 23%. It also gave an inhibition at 1 µM [25] of 26%, an inhibition at 1 µM [26] of 37% and an inhibition at 1 µM [27] of 48%. It also gave an inhibition at 1 µM [28] of 55%, an inhibition at 1 µM [29] of -2% and an inhibition at 1 µM [30] of 8%. It also gave an inhibition at 1 µM [31] of 59%, an inhibition at 1 µM [32] of 57% and an inhibition at 1 µM [33] of 9%. For the same compound, the inhibition at 1 µM [34] was 67%, the inhibition at 1 µM [35] was 52% and the inhibition at 1 µM [36] was -4%. The inhibition at 1 µM [37] was 12%, the inhibition at 1 µM [38] was -15% and the inhibition at 1 µM [39] was 63%. The inhibition at 1 µM [40] was 64% and the inhibition at 1 µM [41] was 52%.
